This note sets out measurements from patent US20060148023A1, “Affinity labeling of serine proteases for simultaneous detection of multiple serine protease activity levels” (priority 2001, published 2006).

Common to all, as to format: cell-based
Holding throughout (conditions): for FLCK RFU: green, ex 488 nm/em 535 nm; for FLCK RFU / SFCK RFU: average of 4 wells; for SFCK RFU: red, ex 590 nm/em 620 nm

The test system of one experiment is Jurkat cells. The experiment is described as follows: FLISP staining of Jurkat cells, fluorescence plate reader. As for the experimental part:
(§1) Preparation of reagents: Fluorescent inhibitors of serine proteases (FLISP) reagents, 5(6)-Carboxyfluoresceinyl-L-phenylalanylchloromethyl ketone (FFCK), 5(6)-carboxyfluoresceinyl-L-leucylchloromethyl ketone (FLCK), Sulforhodaminyl 101 -L-phenylalanylchloromethyl ketone (SFCK) and Sulforhodaminyl 101 -L-leucylchloromethyl ketone (SLCK) are dissolved initially in dimethyl sulfoxide (DMSO; Sigma) to yield a 10 mM concentration. Aliquots are made from this stock solution and stored frozen at −20° C. protected from light. The reagent stock of the FLCK is then diluted directly into the cell culture media to give a 1× working reagent concentration of 20 μM and the reagent stock of the SFCK is then diluted directly into the cell culture media to give a 1× working reagent concentration of 5 μM. Dilution of the reagent into aqueous (cell culture) media is done just prior to cell exposure to preserve the labile chloromethyl ketone reactivity of FLISP reagent.
(§2) Cells: Jurkat, HL-60 and U937 cells were obtained from American Type Culture Collection (ATCC; Rockville, Md.). They were cultured in 25 mL FALCON flasks (Becton Dickinson Co., Franklin Lakes, N.J.) using RPMI 1640 supplemented with 10% fetal calf serum, 100 units/mL penicillin, […] and 2 mM L-glutamine (all from Gibco/BRL Life Technologies, Inc., Grand Island, N.Y.) in a humidified incubator set to maintain 37.5° C. and 5 % CO2. At the onset of experiments, the cells were at an exponential and asynchronous growth phase with fewer than 5×10^5 cells per/mL in culture. To induce apoptosis the cells were treated with 0.15 μM DNA topoisomerase I inhibitor camptothecin (CPT; Sigma Chemical Co., St. Louis, Mo.) for 3 hours.
(§3) Cell staining and evaluation by fluorescence plate reader: The Jurkat, HL-60 and U937 cells from the untreated or CPT treated cultures were centrifuged (200 g, 5 min) and resuspended in PBS at approximately 10^6 cells per 5 ml volume. FLISP staining solutions were prepared by diluting 10 μL of a green 10 mM FLISP reagent stock solution (FLCK) and 2.5 μL of a red 10 mM FLISP reagent stock solution (SFCK) into 5 mL of culture medium yielding a final green FLISP concentration of 20 μM and a final red FLISP concentration of 5 μM. When detecting multiple serine proteases use different CMK labeled peptides i.e. FLCK and SFCK or FFCK and SLCK. The FLISP staining solution was removed by washing the cells in wash buffer (0.5% BSA in PBS +0.05% NaN3, pH 7.4) and centrifuging for 5 minutes at 200 g. The washing step was repeated two more times with fresh wash buffer. After the final wash the cells were resuspended in 5 mL wash buffer and 100 μL per were added to a 96 well black microtiter plate (4 wells were used for each sample). Green and red fluorescence were measured simultaneously on a Spectra MAX Gemini XS fluorescence plate reader (Molecular Devices). Green cell fluorescence (FLCK) was then measured using a 488 nm excitation, 535 nm emission with a 515 nm cutoff. Red cell fluorescence (SFCK) was then measured using a 590 nm excitation, 620 emission with a 610 nm cutoff.

Another experiment relates to HL-60 cells. The experiment is described as follows: FLISP staining of HL-60 cells, fluorescence plate reader. As for the experimental part: as §1, §2, §3
The subject of the next experiment is U937 cells. The experiment is described as follows: FLISP staining of U937 cells, fluorescence plate reader. As for the experimental part:
as §1, §2, §3

Take “5(6)-carboxyfluoresceinyl-L-leucylchloromethyl ketone [FLCK]”: the “FLCK RFU” value with Jurkat cells (Jurkat I (induced, apoptotic; 0.15 μM CPT 3 h), 20 μM) came out at 13.291 RFU; with Jurkat cells (Jurkat NI (non-induced), 20 μM), 3.702 RFU; with HL-60 cells (HL-60 I (induced, apoptotic; 0.15 μM CPT 3 h), 20 μM) it was 7.552 RFU; in the experiment with HL-60 cells (HL-60 NI (non-induced), 20 μM) it was 4.748 RFU; in the experiment with U937 cells (U937 I (induced, apoptotic; 0.15 μM CPT 3 h), 20 μM), 8.208 RFU; in the experiment with U937 cells (U937 NI (non-induced), 20 μM), 2.218 RFU. In addition, the “FLCK Ratio of I/NI” value is given as 3.59 in the experiment with Jurkat cells (Jurkat, induced/non-induced, 20 μM); 1.59 in the experiment with HL-60 cells (HL-60, induced/non-induced, 20 μM); 3.70 with U937 cells (U937, induced/non-induced, 20 μM).

Take `CCN(CC)c1ccc2c(-c3ccc(S(=O)(=O)NC(Cc4ccccc4)C(=O)CCl)cc3S(=O)(=O)[O-])c3ccc(=[N+](CC)CC)cc-3oc2c1` [SFCK, Sulforhodaminyl-L-phenylalanylchloromethyl ketone]: the “SFCK RFU” value stood at 74.348 RFU in the experiment with Jurkat cells (Jurkat I (induced, apoptotic; 0.15 μM CPT 3 h), 5 μM); 30.596 RFU in the experiment on Jurkat cells (Jurkat NI (non-induced), 5 μM); 49.045 RFU in the experiment with HL-60 cells (HL-60 I (induced, apoptotic; 0.15 μM CPT 3 h), 5 μM); 38.301 RFU with HL-60 cells (HL-60 NI (non-induced), 5 μM); 44.245 RFU with U937 cells (U937 I (induced, apoptotic; 0.15 μM CPT 3 h), 5 μM); 24.341 RFU with U937 cells (U937 NI (non-induced), 5 μM). Also, the “SFCK Ratio of I/NI” value is 2.43 in the experiment with Jurkat cells (Jurkat, induced/non-induced, 5 μM); 1.28 in the experiment on HL-60 cells (HL-60, induced/non-induced, 5 μM); 1.82 in the experiment on U937 cells (U937, induced/non-induced, 5 μM).
